From patent US20090082304A1, “Methods of Treating Hematological Malignancies with Nucleoside Analog Drugs” (NORTHWESTERN UNIVERSITY, priority 2004, published 2009)

Columns and labels:
[1] = test system: MM cells; settings: MM cells, previously shown; cited from earlier work
[2] = test system: ERK1/2; experiment: Immunoblot of phospho-ERK1/2 in MM.1 S cells; format: cell-based; settings: data not shown; for phospho-ERK1/2: dextrose-free media, ATP depletion, 90 minutes; for phosphorylation of ERK1/2: 4 hours
Procedure: (§1) 5×10^6 were cells treated with 10 μM 8-NH2-Ado for the indicated times and harvested. Cell pellets were washed with cold phosphate-buffered saline (PBS; 8.1 g NaCl, 1.14 g Na2HPO4, 0.22 g KCl, and 0.25 g/L KH2PO4) and incubated with lysis buffer (50 mM HEPES, 150 mM NaCl, 1.5 mM MgCl2, 1 mM EDTA pH 8.0, 100 mM NaFI, 10 mM Na Pyrophosphate, 500 μM PMSF, 0.5% Triton X-100, 10% glycerol) at 4° C. for one hour. Lysates were centrifuged at 4° C. for 1 minute at 9000×g, and the supernatants were collected and stored at −20° C. Protein concentration was determined by Bio-Rad protein assay (BioRad Laboratories, Hercules, Calif.). Protein, at a concentration of 30 μg, was mixed with sample buffer (125 mM Tris, pH 6.8, 4% SDS, 20% glycerol, 100 mM Dithiothreitol (DTT), and 0.05% bromophenol blue), and fractionated on a pre-cast 8-16% Tris-Glycine gel (Invitrogen/Novex, Carlsbad, Calif.). Proteins were then transferred to a Polyvinylidene Fluoride (PVDF) membrane (Immobilon-P, Millipore, Bedford, Mass.): Following protein transfer, membranes were blocked with 5% non-fat milk in PBS-T (PBS with 0.1% Tween), incubated with the primary antibody overnight at 4° C. and subsequently with horseradish peroxidase linked secondary antibody (Amersham, Arlington Heights, Ill.). Blots were developed using ECL Plus Chemiluminescent Western Blotting Detection reagent (Amersham, Arlington Heights, Ill.) and the signal was visualized with X-ray film (Hyperfilm, Amersham, Arlington Heights, Ill.). For reprobing purposes, blots were stripped using Restore Western Blot Stripping Buffer from Pierce Biotechnology (Rockford, Ill.). Phospho-MKK3/6 (Ser189/207), phospho-p38 (Thr180/Tyr182), phospho-ATF-2 (Thr69/71), phospho-c-Raf (Ser259), phospho-MEK1/2 (Ser217/221), total MEK1/2, phospho-ERK1/2 (Thr202/Tyr204), total ERK1/2, phospho-p90RSK (Ser380), total RSK, phospho-PDK1 (Ser241), total PDKI, phospho-PTEN (Ser380), total PTEN, phospho-Akt (Ser473), total Akt, phospho-GSK-3β (Ser9), total GSK-3β, phospho-FKHRLI (Thr32)/-FKHR (Thr24), phospho-FKHR (Ser256) primary antibodies were obtained from Cell Signaling Technology (Beverly, Mass.). Total MKK3, total MKK6, total p38, total ATF-2, total c-Raf, total FKHR, total FKHRLI, phospho-JNK and total JNK were purchased from Santa Cruz Biotechnology (Santa Cruz, Calif.). Caspase 3, caspase 9, and PARP antibodies were obtained from Pharmingen (San Diego, Calif.) and anti-MKP1 from Upstate (Lake Placid, N.Y.). Anti-caspase 8 mouse serum was a generous gift of Dr. Marcus Peter (University of Chicago).
(§2) MM.1 S cells were exposed to 10 μM 8-NH2-Ado for 0, 0.5, 1, 2, 4 and 6 hours, after which cells were lysed as previously (Example 2). 30 μg of protein was separated by gel electrophoresis, transferred to PVDF membrane, and probed with phosphorylation-specific antibodies to MKK3/6, p38 MAPK, ATF-2, MEK1/2, ERK1/2, p90RSK, JNK1, PDK1, Akt, FKHRL1 and GSK-3β.
(§3) MM. I S cells were treated with 10 μM 8-chloro-adenosine for 0, 0.5, 1, 2, 4 or 6 hours or 10 μM of cytarabine, fludarabine, gemcitabine or 8-amino-adenosine for 4 hours. Cells were lysed as previously described and 30 μg of protein was separated by gel electrophoresis, transferred to PVDF membrane, and probed with phospho-p38 MAPK (Thr180/Tyr182) antibody.
(§4) MM.1 S cells were grown in dextrose-free media and treated with 2 μM Antimycin A, 5 mM 2-DOG, and varying concentrations of dextrose for 90 minutes. Cellular ATP levels were determined using triplicate samples in a luciferase based assay and are expressed here as a percentage of untreated control.

[3] = test system: Akt kinase; experiment: Immunoblot of phospho-Akt in MM.1 S cells; format: cell-based; settings: data not shown; for phospho-Akt: dextrose-free media, ATP depletion, 90 minutes; for phosphorylation of Akt: 4 hours
Procedure: as §1, §2, §3, §4

[4] = test system: p38 MAPK; experiment: Immunoblot of phospho-p38 MAPK in MM.1 S cells; format: cell-based
Procedure: as §1
as §2, with “GSK-3β. […] FIGS. 1A, 1B, 1C and 1D provide the results of the blots.” for “GSK-3β.”
as §3
In a parallel approach to test the involvement of cellular phosphatases, we treated MM.1 S cells with varying concentrations of the phosphatase inhibitor okadaic acid in combination with 8-NH2-Ado for 4 hours to assess whether the serine/threonine phosphatases PP2A and PPI are involved.

[5] = test system: MM cells; settings: cited from earlier work

Nc1nc(F)nc2c1ncn2[C@@H]1O[C@H](CO)[C@@H](O)[C@@H]1O [Fludarabine]
cytotoxicity [1]: cytotoxic

O=CC[C@@H](O)[C@H](O)[C@H](O)CO [2-DOG, 2-deoxy-D-glucose]
phospho-ERK1/2 [2]: did not reveal a decrease in phosphorylation | phospho-Akt [3]: did not reveal a decrease in phosphorylation

Nc1ccn([C@@H]2O[C@H](CO)[C@@H](O)[C@@H]2O)c(=O)n1 [cytarabine]
phosphorylation of p38 ([4]; 10 μM, 4 hours): do not cause a decrease | phosphorylation of ERK1/2 ([2]; 10 μM): do not cause a decrease | phosphorylation of Akt ([3]; 10 μM): do not cause a decrease | cytotoxicity [1]: cytotoxic

C=C1[C@@H](O)[C@@H]2O[C@]3(CC[C@H](/C=C/[C@@H](C)[C@@H]4CC(C)=C[C@@]5(O[C@H](C[C@@](C)(O)C(=O)O)CC[C@H]5O)O4)O3)CC[C@H]2O[C@@H]1[C@@H](O)C[C@H](C)[C@H]1O[C@@]2(CCCCO2)CC[C@H]1C [okadaic acid]
phospho-p38 in the presence of 8-NH2-Ado ([4]; 30 nM okadaic acid in combination with 8-NH2-Ado, 4 hours): partial recovery of phosphorylation | phospho-p38 levels ([4]; 30 nM okadaic acid with 10 μM 8-NH2-Ado, at 6 hours): still present | 8-NH2-Ado-induced loss of p38 phosphorylation ([4]; 30 nM okadaic acid with 10 μM 8-NH2-Ado, time course): significantly delays

Antimycin A
phospho-ERK1/2 [2]: did not reveal a decrease in phosphorylation | phospho-Akt [3]: did not reveal a decrease in phosphorylation

Nc1ccn([C@@H]2O[C@H](CO)[C@@H](O)C2(F)F)c(=O)n1 [gemcitabine]
phosphorylation of p38 ([4]; 10 μM, 4 hours): do not cause a decrease | phosphorylation of ERK1/2 ([2]; 10 μM): do not cause a decrease | phosphorylation of Akt ([3]; 10 μM): do not cause a decrease | cytotoxicity [1]: cytotoxic

Nc1ncnc2c1nc(Cl)n2[C@@H]1O[C@H](CO)[C@@H](O)[C@H]1O [8-chloro-adenosine]
phosphorylation status of p38 ([4]; 10 μM, time course 0-6 hours): does not reveal any effect | phosphorylation status of ERK1/2 ([2]; 10 μM, time course 0-6 hours): does not reveal any effect | phosphorylation status of Akt kinase ([3]; 10 μM, time course 0-6 hours): does not reveal any effect | apoptosis [5]: induces apoptosis
